Experimental data published in PubChem BioAssay AID248 (DTP/NCI, 2004).
Where “and” joins values, the source holds several entries; their conditions need not be identical. Equal values may be shown once. Toxic doses and inconclusive results are not listed. No stated cut-off is given here; in the data, active means T/C of 150% or more; inactive means T/C below 125%.

Test system: L1210 leukemia ip in BDF1 mice, survival T/C
Test: NCI In Vivo Anticancer Drug Screen. Data for tumor model L1210 Leukemia (intraperitoneal) in B6D2F1 (BDF1) mice
Conditions: endpoint: mean survival time, higher = longer survival
In short: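 Each compound was tested against a transplantable tumor grown in mice. The endpoint was survival, with treated animals benchmarked against vehicle controls as a simple ratio.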

[1] = dose: 100.0 mg/kg/injection, schedule: Q04DX003 (ip), vehicle: saline
[2] = dose: 200.0 mg/kg/injection, schedule: Q04DX003 (ip), vehicle: saline
[3] = dose: 400.0 mg/kg/injection, schedule: Q04DX003 (ip), vehicle: saline
[4] = dose: 100.0 mg/kg/injection, schedule: Q01DX009 (ip), vehicle: saline with Tween-80
[5] = dose: 100.0 mg/kg/injection, schedule: Q04DX003 (ip), vehicle: saline with Tween-80
[6] = dose: 200.0 mg/kg/injection, schedule: Q01DX009 (ip), vehicle: saline with Tween-80
[7] = dose: 200.0 mg/kg/injection, schedule: Q04DX003 (ip), vehicle: saline with Tween-80
[8] = dose: 400.0 mg/kg/injection, schedule: Q01DX009 (ip), vehicle: saline with Tween-80
[9] = dose: 400.0 mg/kg/injection, schedule: Q04DX003 (ip), vehicle: saline with Tween-80
[10] = dose: 100.0 mg/kg/injection, schedule: Q01DX001 (ip), vehicle: Klucel (hydroxypropylcellulose) (HPC)
[11] = dose: 100.0 mg/kg/injection, schedule: Q01DX009 (ip), vehicle: Klucel (hydroxypropylcellulose) (HPC)
[12] = dose: 200.0 mg/kg/injection, schedule: Q01DX001 (ip), vehicle: Klucel (hydroxypropylcellulose) (HPC)
[13] = dose: 400.0 mg/kg/injection, schedule: Q01DX001 (ip), vehicle: Klucel (hydroxypropylcellulose) (HPC)
[14] = dose: 100.0 mg/kg/injection, schedule: Q01DX001 (ip), vehicle: other
[15] = dose: 200.0 mg/kg/injection, schedule: Q01DX001 (ip), vehicle: other
[16] = dose: 400.0 mg/kg/injection, schedule: Q01DX001 (ip), vehicle: other
[17] = dose: 100.0 mg/kg/injection, schedule: Q04DX003 (ip), vehicle: Klucel (hydroxypropylcellulose) (HPC)
[18] = dose: 200.0 mg/kg/injection, schedule: Q04DX003 (ip), vehicle: Klucel (hydroxypropylcellulose) (HPC)
[19] = dose: 400.0 mg/kg/injection, schedule: Q04DX003 (ip), vehicle: Klucel (hydroxypropylcellulose) (HPC)

Measured: T/C

CN(C)C(=O)/C=C/C(=O)N(C)C
inactive: [1] 103 % of control | [2] 103 % of control | [3] 108 % of control

CC1=C2CC(C(C)(C)O)CCC2(C)CC/C1=N\N1CCCCC1 (stereo unspecified)
inactive: dose: 100.0 mg/kg/injection, schedule: Q04DX003 (sc), vehicle: olive oil, sesame oil, peanut oil 100 % of control | dose: 200.0 mg/kg/injection, schedule: Q04DX003 (sc), vehicle: olive oil, sesame oil, peanut oil 107 % of control | dose: 400.0 mg/kg/injection, schedule: Q04DX003 (sc), vehicle: olive oil, sesame oil, peanut oil 105 % of control

COc1cc(-c2ccc(NC(=O)CC(C)=O)c(OC)c2)ccc1NC(=O)CC(C)=O
inactive: [4] 94 % of control | [5] 92 % of control | [6] 101 % of control | [7] 91 % of control | [8] 99 % of control | [9] 89 % of control

CCOC(=O)N(Cl)Cl
inactive: dose: 3.13 mg/kg/injection, schedule: Q04DX003 (ip), vehicle: saline 105 % of control | dose: 6.25 mg/kg/injection, schedule: Q04DX003 (ip), vehicle: saline 98 % of control | dose: 12.5 mg/kg/injection, schedule: Q04DX003 (ip), vehicle: saline 98 % of control

CCOC(=O)c1ccc(N=C2C(C)(C)C(=Nc3ccc(C(=O)OCC)cc3)C2(C)C)cc1
inactive: dose: 100.0 mg/kg/injection, schedule: Q04DX002 (ip), vehicle: saline with Tween-80 93 % of control | dose: 200.0 mg/kg/injection, schedule: Q04DX002 (ip), vehicle: saline with Tween-80 87 % of control | dose: 400.0 mg/kg/injection, schedule: Q04DX002 (ip), vehicle: saline with Tween-80 87 % of control

C/C=C(C)/C=N/Nc1nnc(N/N=C/C(C)=C/C)c2ccccc12
inactive: dose: 50.0 mg/kg/injection, schedule: Q01DX001 (ip), vehicle: carboxymethylcellulose (CMC) 95 % of control | dose: 100.0 mg/kg/injection, schedule: Q01DX001 (ip), vehicle: carboxymethylcellulose (CMC) 95 % of control | dose: 200.0 mg/kg/injection, schedule: Q01DX001 (ip), vehicle: carboxymethylcellulose (CMC) 103 % of control

CCOC(=O)c1[nH]c(C(=O)O)c(CCC(=O)OC)c1C
inactive: dose: 50.0 mg/kg/injection, schedule: Q01DX009 (ip), vehicle: Klucel (hydroxypropylcellulose) (HPC) 110 % of control | [10] 93 % of control | [11] 90 % of control | [12] 98 % of control | dose: 300.0 mg/kg/injection, schedule: Q01DX009 (ip), vehicle: Klucel (hydroxypropylcellulose) (HPC) 100 % of control | [13] 97 % of control

O=C(/C=C\c1ccccc1)NCCNC(=O)/C=C/c1ccccc1
inactive: dose: 100.0 mg/kg/injection, schedule: Q01DX001 (ip), vehicle: saline 105 % of control | dose: 200.0 mg/kg/injection, schedule: Q01DX001 (ip), vehicle: saline 94 % of control | dose: 400.0 mg/kg/injection, schedule: Q01DX001 (ip), vehicle: saline 108 % of control

COC(=O)c1cc(C(=O)OC)c(C(=O)OC)cc1C(=O)OC
inactive: [4] 101 % of control | [6] 98 % of control | [8] 98 % of control

COCCCNP(=S)(OC)OC
inactive: [14] 98 % of control | dose: 100.0 mg/kg/injection, schedule: Q04DX003 (ip), vehicle: other 98 % of control | [15] 105 % of control | dose: 200.0 mg/kg/injection, schedule: Q04DX003 (ip), vehicle: other 98 % of control | [16] 94 % of control | dose: 400.0 mg/kg/injection, schedule: Q04DX003 (ip), vehicle: other 101 % of control

O=C(COc1ccc(Cl)cc1Cl)OCCOCCOCCOCCOCCOCCOCCOCCOCCOCCOCCOCCOCCO
inactive: [11] 101 % of control | dose: 200.0 mg/kg/injection, schedule: Q01DX009 (ip), vehicle: Klucel (hydroxypropylcellulose) (HPC) 101 % of control | dose: 400.0 mg/kg/injection, schedule: Q01DX009 (ip), vehicle: Klucel (hydroxypropylcellulose) (HPC) 98 % of control

NC(C(=O)O)c1cccc(Cl)c1 (stereo unspecified)
inactive: [10] 123 % of control | [17] 100 % of control | [12] 109 % of control | [18] 91 % of control | [13] 105 % of control | [19] 100 % of control

CCOC(=O)c1ccc(OC(=O)Nc2ccccc2)cc1
inactive: [4] 98 % of control | [5] 98 % of control | [6] 96 % of control | [7] 95 % of control | [8] 90 % of control | [9] 91 % of control

O=C(N/C=C/NC(=O)Nc1ccc([N+](=O)[O-])cc1)Nc1ccc([N+](=O)[O-])cc1
inactive: [17] 100 % of control | [18] 89 % of control | [19] 92 % of control

C=C(C)CN1C(=O)c2ccccc2C1=O
inactive: dose: 25.0 mg/kg/injection, schedule: Q01DX009 (ip), vehicle: gum acacia 94 % of control | dose: 50.0 mg/kg/injection, schedule: Q01DX009 (ip), vehicle: gum acacia 96 % of control | dose: 100.0 mg/kg/injection, schedule: Q01DX009 (ip), vehicle: gum acacia 88 % of control | dose: 100.0 mg/kg/injection, schedule: Q04DX003 (ip), vehicle: gum acacia 108 % of control | dose: 200.0 mg/kg/injection, schedule: Q04DX003 (ip), vehicle: gum acacia 97 % of control | dose: 400.0 mg/kg/injection, schedule: Q04DX003 (ip), vehicle: gum acacia 93 % of control

NC(=O)C(CCC(=O)O)NC(=O)OCc1ccccc1 (stereo unspecified)
inactive: dose: 25.0 mg/kg/injection, schedule: Q04DX002 (ip), vehicle: Klucel (hydroxypropylcellulose) (HPC) 100 % of control | dose: 50.0 mg/kg/injection, schedule: Q04DX002 (ip), vehicle: Klucel (hydroxypropylcellulose) (HPC) 92 % of control | dose: 100.0 mg/kg/injection, schedule: Q04DX002 (ip), vehicle: Klucel (hydroxypropylcellulose) (HPC) 100 % of control

CCN(C(=O)Nc1ccccc1F)c1cc(OC)ccc1C
inactive: dose: 50.0 mg/kg/injection, schedule: Q01DX009 (ip), vehicle: saline with Tween-80 91 % of control | [4] 86 % of control

O=C(NC(=O)c1ccccc1)C(=O)c1ccccc1
inactive: dose: 100.0 mg/kg/injection, schedule: Q01DX001 (ip), vehicle: saline with Tween-80 94 % of control | dose: 200.0 mg/kg/injection, schedule: Q01DX001 (ip), vehicle: saline with Tween-80 105 % of control | dose: 400.0 mg/kg/injection, schedule: Q01DX001 (ip), vehicle: saline with Tween-80 87 % of control

O=C(O)CCSCc1cc(=O)[nH]c(=O)[nH]1
inactive: [1] 96 % of control | [2] 98 % of control | [3] 96 % of control

O=C(C=C(C(F)(F)F)C(F)(F)F)c1cccc(S(=O)(=O)F)c1
inactive: dose: 3.13 mg/kg/injection, schedule: Q01DX009 (ip), vehicle: saline with Tween-80 96 % of control | dose: 6.25 mg/kg/injection, schedule: Q01DX009 (ip), vehicle: saline with Tween-80 100 % of control | dose: 12.5 mg/kg/injection, schedule: Q01DX009 (ip), vehicle: saline with Tween-80 95 % of control

COC(=O)c1[nH]cnc1/N=N/Nc1ccc(Cl)c(Cl)c1
inactive: dose: 50.0 mg/kg/injection, schedule: Q01DX001 (ip), vehicle: other 94 % of control | [14] 95 % of control and 103 % of control | [15] 105 % of control and 110 % of control | [16] 97 % of control and 100 % of control
